{"source": "patent US5747511A", "about": "“Benzothiophene analogs as antiviral agents” (SRI International, priority 1995, dated 1998)", "key": {"cytomegalovirus": {"test_system": "cytomegalovirus", "assay": "in vitro antiviral evaluation, viral cytopathic effect (CPE) by microscopy after 72 hours", "type": "cell-based", "details": "TI column of Table 1 (equals CD50/ED50); 4320 min", "description": "The compounds prepared in the previous Examples were evaluated in vitro as antiviral agents against cytomegalovirus, as follows.\nThe herpes virus strain employed was Strain McCrae of type 1 herpes (thymidine kinase positive virus) (HSV-1TK^+). This strain was prepared and titered in MA-104 cells and frozen at -90° C. until use. Also used were strain HF (HSV-1TK^-), strain E194 (HSV-2), NJB strain (MCMV), and strain AD169 (HCMV).\n(§1) Continuous passaged MRC-5 cells obtained from the American Type Culture Collection (Bethesda, Md.) were used for testing of herpes-type virus, with growth medium consisting of Minimum Essential Medium (MEM) supplemented with 0.1% NaHCO3 and […] gentamicin.\n(§2) To a 96 well microtiter plate containing an established 24 hour monolayer of cells from which the medium has been decanted was added 0.1 mL of varying (one-half log10) concentrations of test compound, which incubated on the cell 15 minutes, after which 0.1 mL of virus in a concentration of 320 cell culture 50% infectious doses (CCID50)/0.1 mL was added. The plate was covered with plastic wrap and incubated at 37° C. The cells were examined microscopically after 72 hours for evidence of cytotoxicity and for viral cytopathic effect (CPE)."}, "MRC-5 cells": {"test_system": "MRC-5 cells", "assay": "evidence of cytotoxicity by microscopy after 72 hours", "type": "cell-based", "design": "unit not given beside the values", "details": "37° C., microscopic cytotoxicity", "description": "as §1, §2"}}, "data": [{"smiles": "Nc1cc2ccncc2c2sc3ccccc3c12", "note": "[Compound 1]", "values": [{"measurement": "TI", "setting": "cytomegalovirus", "result": "> 100"}, {"measurement": "CD50", "setting": "MRC-5 cells", "result": "> 10"}]}]}
